Source: patent US9637473B2, “Acrylamide derivatives as antimalarial agents” (priority 2013, dated 2017)
Counter-ions that a name gives are not always drawn.

These compounds were tested on P. Falciparum NF54 (assay: Plasmodium falciparum in vitro assay ([3H]-hypoxanthine incorporation)). Settings: Plasmodium falciparum, Erythrocyte, P. Falciparum NF54, erythrocytic stages in human red blood cells, 50% human serum.
Format: cell-based
In short: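 This in vitro antimalarial assay used P. falciparum erythrocytic stages cultured in human erythrocytes and measured [3H]-hypoxanthine incorporation. Radioactivity on the dried filters, placed in plastic foil with 10 mL scintillation fluid, was counted in a Betaplate liquid scintillation counter. Sigmoidal inhibition curves built in Microsoft Excel gave the IC50.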

Row | Structure (SMILES) | IC50
1 | CN1CCC(N2CCC(N(Cc3ccc(N(C)c4ccncc4)cc3)C(=O)/C=C/c3ccc(OC(F)F)cc3)CC2)CC1 [Example 181, (E)-3-(4-Difluoromethoxy-phenyl)-N-(1′-methyl-[1,4′]bipiperidinyl-4-yl)-N-[4-(methyl-pyridin-4-yl-amino)-benzyl]-acrylamide] | 36 nM
2 | CN1CCC(N2CCC(N(Cc3ccc(N(C)c4ccncc4)cc3)C(=O)/C=C/c3ccccc3)CC2)CC1 [Example 182, (E)-N-(1′-Methyl-[1,4′]bipiperidinyl-4-yl)-N-[4-(methyl-pyridin-4-yl-amino)-benzyl]-3-phenyl-acrylamide] | 69 nM
3 | CN1CCC(N2CCC(N(Cc3ccc(N(C)c4ccncc4)cc3)C(=O)/C=C/c3ccc(C(F)(F)F)nc3)CC2)CC1 [Example 183, (E)-N-(1′-Methyl-[1,4′]bipiperidinyl-4-yl)-N-[4-(methyl-pyridin-4-yl-amino)-benzyl]-3-(6-trifluoromethyl-pyridin-3-yl)-acrylamide] | 49 nM
4 | Cc1cc(N(C)c2ccc(CN(C(=O)/C=C/c3ccc(C(F)(F)F)cc3)C3CCN(C4CCCC4)CC3)cc2)ccn1 [Example 184, (E)-N-(1-Cyclopentyl-piperidin-4-yl)-N-{4-[methyl-(2-methyl-pyridin-4-yl)-amino]-benzyl}-3-(4-trifluoromethyl-phenyl)-acrylamide] | 44 nM
5 | CCN(CC)Cc1cc(Nc2ccc(CN(C(=O)/C=C/c3ccc(C(F)(F)F)cc3)C3CCN(C)CC3)cc2)ccc1O [Example 185, (E)-N-[4-(3-Diethylaminomethyl-4-hydroxy-phenylamino)-benzyl]-N-(1-methyl-piperidin-4-yl)-3-(4-trifluoromethyl-phenyl)-acrylamide] | 39 nM
6 | Cc1cc(Nc2ccc(CN(C(=O)/C=C/c3ccc(C(F)(F)F)cc3)C3CCN(C(C)C)CC3)cc2)ccn1 [Example 186, (E)-N-(1-Isopropyl-piperidin-4-yl)-N-[4-(2-methyl-pyridin-4-ylamino)-benzyl]-3-(4-trifluoromethyl-phenyl)-acrylamide] | 43 nM
7 | CN1CCC(N2CCC(CN(Cc3ccc(N(C)c4ccncc4)cc3)C(=O)/C=C/c3ccc(C(F)(F)F)cc3)CC2)CC1 [Example 187, (E)-N-(1′-Methyl-[1,4′]bipiperidinyl-4-ylmethyl)-N-[4-(methyl-pyridin-4-yl-amino)-benzyl]-3-(4-trifluoromethyl-phenyl)-acrylamide] | 16 nM
8 | CN(c1ccncc1)c1ccc(CN(CC2CCN(C3CCCC3)CC2)C(=O)/C=C/c2ccc(C(F)(F)F)cc2)cc1 [Example 188, (E)-N-(1-Cyclopentyl-piperidin-4-ylmethyl)-N-[4-(methyl-pyridin-4-yl-amino)-benzyl]-3-(4-trifluoromethyl-phenyl)-acrylamide] | 40 nM
9 | CC(C)CCN1CCC(CN(Cc2ccc(N(C)c3ccncc3)cc2)C(=O)/C=C/c2ccc(C(F)(F)F)cc2)CC1 [Example 189, (E)-N-[1-(3-Methyl-butyl)-piperidin-4-ylmethyl]-N-[4-(methyl-pyridin-4-yl-amino)-benzyl]-3-(4-trifluoromethyl-phenyl)-acrylamide] | 34 nM
10 | CN(c1ccncc1)c1ccc(CN(C(=O)/C=C/c2ccc(C(F)(F)F)cc2)[C@H]2CC[C@H](N(C)C)CC2)cc1 [Example 190, (±)-trans-(E)-N-(4-Dimethylamino-cyclohexyl)-N-[4-(methyl-pyridin-4-yl-amino)-benzyl]-3-(4-trifluoromethyl-phenyl)-acrylamide] | 63 nM
11 | CN(c1ccncc1)c1ccc(CN(C(=O)/C=C/c2ccc(C(F)(F)F)cc2)[C@H]2CC[C@@H](N(C)C)CC2)cc1 [Example 191, (±)-cis-(E)-N-(4-Dimethylamino-cyclohexyl)-N-[4-(methyl-pyridin-4-yl-amino)-benzyl]-3-(4-trifluoromethyl-phenyl)-acrylamide] | 34 nM
12 | CN(c1ccncc1)c1ccc(CN(C(=O)/C=C/c2ccc(C(F)(F)F)cc2)[C@H]2CC[C@@H](N3CCCC3)CC2)cc1 [Example 192, (±)-cis-(E)-N-[4-(Methyl-pyridin-4-yl-amino)-benzyl]-N-(4-pyrrolidin-1-yl-cyclohexyl)-3-(4-trifluoromethyl-phenyl)-acrylamide] | 25 nM
13 | CN(c1ccncc1)c1ccc(CN(C(=O)/C=C/c2ccc(C(F)(F)F)cc2)[C@H]2CC[C@H](N3CCCC3)CC2)cc1 [Example 193, (±)-trans-(E)-N-[4-(Methyl-pyridin-4-yl-amino)-benzyl]-N-(4-pyrrolidin-1-yl-cyclohexyl)-3-(4-trifluoromethyl-phenyl)-acrylamide] | 49 nM
14 | CN1CCC(N2CCC(N(Cc3ccc(C(=O)c4ccncc4)cc3)C(=O)/C=C/c3ccc(C(F)(F)F)cc3)CC2)CC1 [Example 194, (E)-N-(1′-Methyl-[1,4′]bipiperidinyl-4-yl)-N-[4-(pyridine-4-carbonyl)-benzyl]-3-(4-trifluoromethyl-phenyl)-acrylamide] | 127 nM
15 | CN(C)CCN1CCC(N(Cc2ccc(N(C)c3ccncc3)cc2)C(=O)/C=C/c2ccc(C(F)(F)F)cc2)CC1 [Example 195, (E)-N-[1-(2-Dimethylamino-ethyl)-piperidin-4-yl]-N-[4-(methyl-pyridin-4-yl-amino)-benzyl]-3-(4-trifluoromethyl-phenyl)-acrylamide formate] | 57 nM
16 | Cc1cc(-c2ccc(CN(C(=O)/C=C/c3ccc(C(F)(F)F)cc3)C3CCN(C4CCCC4)CC3)cc2)ccn1 [Example 196, (E)-N-(1-Cyclopentyl-piperidin-4-yl)-N-[4-(2-methyl-pyridin-4-yl)-benzyl]-3-(4-trifluoromethyl-phenyl)-acrylamide] | 248 nM
17 | O=C(/C=C/c1ccc(C(F)(F)F)cc1)N(Cc1ccc(-c2cccnc2)cc1)C1CCN(C2CCCC2)CC1 [Example 197, (E)-N-(1-Cyclopentyl-piperidin-4-yl)-N-(4-pyridin-3-yl-benzyl)-3-(4-trifluoromethyl-phenyl)-acrylamide] | 184 nM
18 | O=C(/C=C/c1ccc(C(F)(F)F)cc1)N(Cc1ccc(-c2ccccn2)cc1)C1CCN(C2CCCC2)CC1 [Example 198, (E)-N-(1-Cyclopentyl-piperidin-4-yl)-N-(4-pyridin-2-yl-benzyl)-3-(4-trifluoromethyl-phenyl)-acrylamide] | 355 nM
19 | CC(C)N1CCN(c2ccc(CN(C(=O)/C=C/c3ccc(C(F)(F)F)cc3)C3CCN(C4CCCC4)CC3)cc2)CC1 [Example 199, (E)-N-(1-Cyclopentyl-piperidin-4-yl)-N-[4-(4-isopropyl-piperazin-1-yl)-benzyl]-3-(4-trifluoromethyl-phenyl)-acrylamide] | 96 nM
20 | CN1CCN(c2ccc(CN(C(=O)/C=C/c3ccc(C(F)(F)F)cc3)C3CCN(C4CCCC4)CC3)cc2)CC1 [Example 200, (E)-N-(1-Cyclopentyl-piperidin-4-yl)-N-[4-(4-methyl-piperazin-1-yl)-benzyl]-3-(4-trifluoromethyl-phenyl)-acrylamide] | 232 nM
21 | Cc1ncc(-c2ccc(CN(C(=O)/C=C/c3ccc(C(F)(F)F)cc3)C3CCN(C4CCCC4)CC3)cc2)s1 [Example 201, (E)-N-(1-Cyclopentyl-piperidin-4-yl)-N-[4-(2-methyl-thiazol-5-yl)-benzyl]-3-(4-trifluoromethyl-phenyl)-acrylamide] | 357 nM
22 | Cn1ccc(-c2ccc(CN(C(=O)/C=C/c3ccc(C(F)(F)F)cc3)C3CCN(C4CCCC4)CC3)cc2)n1 [Example 202, (E)-N-(1-Cyclopentyl-piperidin-4-yl)-N-[4-(1-methyl-1H-pyrazol-3-yl)-benzyl]-3-(4-trifluoromethyl-phenyl)-acrylamide] | 434 nM
23 | O=C(/C=C/c1ccc(C(F)(F)F)cc1)N(Cc1ccc(-c2ncccn2)cc1)C1CCN(C2CCCC2)CC1 [Example 203, (E)-N-(1-Cyclopentyl-piperidin-4-yl)-N-(4-pyrimidin-2-yl-benzyl)-3-(4-trifluoromethyl-phenyl)-acrylamide] | 400 nM
24 | O=C(/C=C/c1ccc(C(F)(F)F)cc1)N(Cc1ccc(-c2cncnc2)cc1)C1CCN(C2CCCC2)CC1 [Example 204, (E)-N-(1-Cyclopentyl-piperidin-4-yl)-N-(4-pyrimidin-5-yl-benzyl)-3-(4-trifluoromethyl-phenyl)-acrylamide] | 431 nM
25 | CN(C)CCCOc1ccc(CN(C(=O)/C=C/c2ccc(C(F)(F)F)cc2)C2CCN(C3CCCC3)CC2)cc1 [Example 205, (E)-N-(1-Cyclopentyl-piperidin-4-yl)-N-[4-(3-dimethylamino-propoxy)-benzyl]-3-(4-trifluoromethyl-phenyl)-acrylamide] | 82 nM
26 | O=C(/C=C/c1ccc(C(F)(F)F)cc1)N(Cc1ccnc(N2CCCC2)c1)C1CCN(C2CCCC2)CC1 [Example 206, (E)-N-(1-Cyclopentyl-piperidin-4-yl)-N-(2-pyrrolidin-1-yl-pyridin-4-ylmethyl)-3-(4-trifluoromethyl-phenyl)-acrylamide] | 451 nM
27 | O=C(/C=C/c1ccc(C(F)(F)F)cc1)N(Cc1ccc(Oc2ccncc2)cc1)C1CCN(C2CCCC2)CC1 [Example 207, (E)-N-(1-Cyclopentyl-piperidin-4-yl)-N-[4-(pyridin-4-yloxy)-benzyl]-3-(4-trifluoromethyl-phenyl)-acrylamide] | 412 nM
28 | Cc1cc(Oc2ccc(CN(C(=O)/C=C/c3ccc(C(F)(F)F)cc3)C3CCN(C4CCCC4)CC3)cc2)cc(C)n1 [Example 208, (E)-N-(1-Cyclopentyl-piperidin-4-yl)-N-[4-(2,6-dimethyl-pyridin-4-yloxy)-benzyl]-3-(4-trifluoromethyl-phenyl)-acrylamide] | 82 nM
29 | Cc1cc(Nc2ccc(CN(C(=O)/C=C/c3ccc(Cl)cc3)C(C)CN(C)C)cc2)ccn1 (stereo not drawn) [Example 209, (E)-3-(4-Chloro-phenyl)-N-(2-dimethylamino-1-methyl-ethyl)-N-[4-(2-methyl-pyridin-4-ylamino)-benzyl]-acrylamide] | 172 nM
30 | Cc1cc(Nc2ccc(CN(C(=O)/C=C/c3ccc(Cl)cc3)C3CCN(C4CC4)CC3)cc2)ccn1 [Example 210, (E)-3-(4-Chloro-phenyl)-N-(1-cyclopropyl-piperidin-4-yl)-N-[4-(2-methyl-pyridin-4-ylamino)-benzyl]-acrylamide] | 174 nM
